Results as given in patent publication US9765105B2, “Macrolide compound” (Pulike Biological Engineering, Inc., priority 2013, dated 2017).

Legend:
Assay in all cases: in vitro susceptibility, MIC by mini broth dilution
Format in all cases: cell-based
Haemophilus parasuis = test system: Haemophilus parasuis
Method in brief: (§1)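 MICs determined by mini broth dilution per NCCLS (now CLSI) standards. Strains revived from −20° C, subcultured twice on solid medium at 35° C for 20 h; compounds two-fold serially diluted in DMSO over 11 gradients, duplicate rows, bacterial suspension diluted 1:200 in liquid medium.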

[1] = test system: Pasteurella multocida CVCC399; details: strain CVCC399
Method in brief: as §1

[2] = test system: Streptococcus equines CVCC556; details: strain CVCC556
Method in brief: as §1

[3] = test system: Actinobacillus pleuropneumoniae CVCC262; details: strain CVCC262
Method in brief: as §1

[4] = test system: Staphylococcus aureus CVCC26003; details: strain CVCC26003
Method in brief: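 MICs were determined by mini broth dilution under NCCLS standards in CAMHB, using revived S. aureus CVCC26003 subcultured 20 h at 35° C. Compounds were two-fold serially diluted in DMSO across 11 wells, with duplicate rows. Bacterial suspension was diluted 1:200 in medium before inoculation.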

Row | SMILES | MIC values, Haemophilus parasuis (Haemophilus parasuis) [ug/mi] | MIC values, Pasteurella multocida CVCC399 [1] [ug/mi] | MIC values, Streptococcus equines CVCC556 [2] [ug/mi] | MIC values, Actinobacillus pleuropneumoniae CVCC262 [3] [ug/mi] | MIC values, Staphylococcus aureus CVCC26003 [4] [ug/mi]
1 | CCCCCCNC[C@]1(O)[C@H](C)O[C@@H](O[C@H]2[C@H](C)[C@@H](O[C@@H]3O[C@H](C)C[C@H](N(C)C)[C@H]3O)[C@](C)(O)C[C@@H](C)N(CCC)C[C@H](C)[C@@H](O)[C@](C)(O)[C@@H](CC)OC(=O)[C@@H]2C)C[C@@]1(C)OC [syzx-115] | 0.25 | 0.5 | 0.25 | 0.25 | 0.25
2 | CCCN1C[C@H](C)[C@@H](O)[C@](C)(O)[C@@H](CC)OC(=O)[C@H](C)[C@@H](O[C@H]2C[C@@](C)(OC)[C@](O)(CNCc3ccc(C(F)(F)F)cc3)[C@H](C)O2)[C@H](C)[C@@H](O[C@@H]2O[C@H](C)C[C@H](N(C)C)[C@H]2O)[C@](C)(O)C[C@H]1C [syzx-116] | 0.25 | 1 | 0.25 | 0.25 | 0.25
3 | CCCN1C[C@H](C)[C@@H](O)[C@](C)(O)[C@@H](CC)OC(=O)[C@H](C)[C@@H](O[C@H]2C[C@@](C)(OC)[C@](O)(CNCC3CC3)[C@H](C)O2)[C@H](C)[C@@H](O[C@@H]2O[C@H](C)C[C@H](N(C)C)[C@H]2O)[C@](C)(O)C[C@H]1C [syzx-117] | 0.25 | 0.5 | 0.25 | 0.25 | 0.25
4 | CCCN1C[C@H](C)[C@@H](O)[C@](C)(O)[C@@H](CC)OC(=O)[C@H](C)[C@@H](O[C@H]2C[C@@](C)(OC)[C@](O)(CNCc3ccc(OC)cc3)[C@H](C)O2)[C@H](C)[C@@H](O[C@@H]2O[C@H](C)C[C@H](N(C)C)[C@H]2O)[C@](C)(O)C[C@H]1C [syzx-118] | 0.25 | 0.25 | 0.25 | 0.25 | 0.25
5 | CCCN1C[C@H](C)[C@@H](O)[C@](C)(O)[C@@H](CC)OC(=O)[C@H](C)[C@@H](O[C@H]2C[C@@](C)(OC)[C@](O)(CNCc3ccc([N+](=O)[O-])cc3)[C@H](C)O2)[C@H](C)[C@@H](O[C@@H]2O[C@H](C)C[C@H](N(C)C)[C@H]2O)[C@](C)(O)C[C@H]1C [syzx-119] | 0.25 | 1 | 0.25 | 0.25 | 0.25
6 | CCCN1C[C@H](C)[C@@H](O)[C@](C)(O)[C@@H](CC)OC(=O)[C@H](C)[C@@H](O[C@H]2C[C@@](C)(OC)[C@](O)(CNCc3ccc(Cl)cc3)[C@H](C)O2)[C@H](C)[C@@H](O[C@@H]2O[C@H](C)C[C@H](N(C)C)[C@H]2O)[C@](C)(O)C[C@H]1C [syzx-120] | 0.25 | 0.5 | 0.25 | 0.25 | 0.25
7 | CCCN1C[C@H](C)[C@@H](O)[C@](C)(O)[C@@H](CC)OC(=O)[C@H](C)[C@@H](O[C@H]2C[C@@](C)(OC)[C@](O)(CNCc3cccnc3)[C@H](C)O2)[C@H](C)[C@@H](O[C@@H]2O[C@H](C)C[C@H](N(C)C)[C@H]2O)[C@](C)(O)C[C@H]1C [syzx-121] | 0.25 | 0.5 | 0.5 | 0.25 | 0.25
8 | CCCN1C[C@H](C)[C@@H](O)[C@](C)(O)[C@@H](CC)OC(=O)[C@H](C)[C@@H](O[C@H]2C[C@@](C)(OC)[C@](O)(CNCCCOCC)[C@H](C)O2)[C@H](C)[C@@H](O[C@@H]2O[C@H](C)C[C@H](N(C)C)[C@H]2O)[C@](C)(O)C[C@H]1C [syzx-122] | 0.5 | 1 | 0.25 | 1 | 1
9 | CCCN1C[C@H](C)[C@@H](O)[C@](C)(O)[C@@H](CC)OC(=O)[C@H](C)[C@@H](O[C@H]2C[C@@](C)(OC)[C@](O)(CNCCOC)[C@H](C)O2)[C@H](C)[C@@H](O[C@@H]2O[C@H](C)C[C@H](N(C)C)[C@H]2O)[C@](C)(O)C[C@H]1C [syzx-125] | 0.5 | 2 | 0.25 | 0.5 | 1
10 | CCCN1C[C@H](C)[C@@H](O)[C@](C)(O)[C@@H](CC)OC(=O)[C@H](C)[C@@H](O[C@H]2C[C@@](C)(OC)[C@](O)(CN(C)CCO)[C@H](C)O2)[C@H](C)[C@@H](O[C@@H]2O[C@H](C)C[C@H](N(C)C)[C@H]2O)[C@](C)(O)C[C@H]1C [syzx-126] | 4 | 2 | 0.5 | 4 | 4
11 | CCCN1C[C@H](C)[C@@H](O)[C@](C)(O)[C@@H](CC)OC(=O)[C@H](C)[C@@H](O[C@H]2C[C@@](C)(OC)[C@](O)(CNCc3cccc(OC)c3)[C@H](C)O2)[C@H](C)[C@@H](O[C@@H]2O[C@H](C)C[C@H](N(C)C)[C@H]2O)[C@](C)(O)C[C@H]1C [syzx-127] | 1 | 8 | 0.25 | 1 | 4
12 | CCCN1C[C@H](C)[C@@H](O)[C@](C)(O)[C@@H](CC)OC(=O)[C@H](C)[C@@H](O[C@H]2C[C@@](C)(OC)[C@](O)(CNC3CCCC3)[C@H](C)O2)[C@H](C)[C@@H](O[C@@H]2O[C@H](C)C[C@H](N(C)C)[C@H]2O)[C@](C)(O)C[C@H]1C [syzx-130] | 8 | 0.5 | 0.25 | 0.5 | 0.25
13 | CCCN1C[C@H](C)[C@@H](O)[C@](C)(O)[C@@H](CC)OC(=O)[C@H](C)[C@@H](O[C@H]2C[C@@](C)(OC)[C@](O)(CNCc3ccc(F)cc3F)[C@H](C)O2)[C@H](C)[C@@H](O[C@@H]2O[C@H](C)C[C@H](N(C)C)[C@H]2O)[C@](C)(O)C[C@H]1C [syzx-131] | 0.25 | 0.5 | 0.25 | 0.25 | 0.25
14 | CCCN1C[C@H](C)[C@@H](O)[C@](C)(O)[C@@H](CC)OC(=O)[C@H](C)[C@@H](O[C@H]2C[C@@](C)(OC)[C@](O)(CNc3ccc(Cl)nn3)[C@H](C)O2)[C@H](C)[C@@H](O[C@@H]2O[C@H](C)C[C@H](N(C)C)[C@H]2O)[C@](C)(O)C[C@H]1C [syzx-132] | 0.5 | 2 | 0.25 | 0.5 | 1
15 | CCCN1C[C@H](C)[C@@H](O)[C@](C)(O)[C@@H](CC)OC(=O)[C@H](C)[C@@H](O[C@H]2C[C@@](C)(OC)[C@](O)(CNCCCCO)[C@H](C)O2)[C@H](C)[C@@H](O[C@@H]2O[C@H](C)C[C@H](N(C)C)[C@H]2O)[C@](C)(O)C[C@H]1C [syzx-133] | 0.5 | 2 | 0.5 | 1 | 1
